Data on 1 molecule can be found in US11149057B2, “Neuroactive steroids, compositions, and uses thereof” (Sage Therapeutics, Inc., priority 2014, dated 2021).

SMILES strings stand for the structures. pIC50: −log10 of the molar value.

The target of one test is T1, α1β2γ2 GABAA receptors (Homo sapiens, UniProt P14867+P47870).
T1 construct: expressed in transfected cells
The test is described as follows: Patch clamp electrophysiology (QPatch) of recombinant α1β2γ2 GABAA receptors in LTK cells. The test is classed as cell-based. The settings on record: 10 μM test article, GABA EC20 = 2 μM, read-out: GABA (α1β2γ2) Qpatch in Ltk, % efficacy at 10 μM. A general note: Patch clamp records ionic current or voltage across a cell membrane.

The target of test [1] is [35S]-TBPS binding, rat brain cortical membranes. The test is described as follows: Steroid inhibition of [35S]-TBPS binding. The settings on record: 3 nM [35S]-TBPS, in the presence of 5 μM GABA. As for the experimental part: [35S]-Butylbicyclophosphorothionate (TBPS) binding assays using rat brain cortical membranes in the presence of 5 μM GABA has been described (Gee et al, J. Pharmacol. Exp. Ther. 1987, 241, 346-353; Hawkinson et al, Mol. Pharmacol. 1994, 46, 977-985; Lewin, A. H et al., Mol. Pharmacol. 1989, 35, 189-194).
Briefly, cortices are rapidly removed following decapitation of carbon dioxide-anesthetized Sprague-Dawley rats (200-250 g). The cortices are homogenized in 10 volumes of ice-cold 0.32 M sucrose using a glass/teflon homogenizer and centrifuged at 1500×g for 10 min at 4° C. The resultant supernatants are centrifuged at 10,000×g for 20 min at 4° C. to obtain the P2 pellets. The P2 pellets are resuspended in 200 mM NaCl/50 mM Na—K phosphate pH 7.4 buffer and centrifuged at 10,000×g for 10 min at 4° C. This washing procedure is repeated twice and the pellets are resuspended in 10 volumes of buffer. Aliquots (100 μL) of the membrane suspensions are incubated with 3 nM [^35S]-TBPS and 5 μL aliquots of test drug dissolved in dimethyl sulfoxide (DMSO) (final 0.5%) in the presence of 5 μM GABA. The incubation is brought to a final volume of 1.0 mL with buffer. Nonspecific binding is determined in the presence of 2 μM unlabeled TBPS and ranged from 15 to 25%. […] Filter bound radioactivity is measured by liquid scintillation spectrometry. […]

The target of the next test is T2, α4β3δ GABAA receptors (Homo sapiens, UniProt P28472+P48169).
T2 construct: expressed in transfected cells; host or cells: CHO cells (transient transfection, Lipofectamine)
T2 sequence (P48169 36-554): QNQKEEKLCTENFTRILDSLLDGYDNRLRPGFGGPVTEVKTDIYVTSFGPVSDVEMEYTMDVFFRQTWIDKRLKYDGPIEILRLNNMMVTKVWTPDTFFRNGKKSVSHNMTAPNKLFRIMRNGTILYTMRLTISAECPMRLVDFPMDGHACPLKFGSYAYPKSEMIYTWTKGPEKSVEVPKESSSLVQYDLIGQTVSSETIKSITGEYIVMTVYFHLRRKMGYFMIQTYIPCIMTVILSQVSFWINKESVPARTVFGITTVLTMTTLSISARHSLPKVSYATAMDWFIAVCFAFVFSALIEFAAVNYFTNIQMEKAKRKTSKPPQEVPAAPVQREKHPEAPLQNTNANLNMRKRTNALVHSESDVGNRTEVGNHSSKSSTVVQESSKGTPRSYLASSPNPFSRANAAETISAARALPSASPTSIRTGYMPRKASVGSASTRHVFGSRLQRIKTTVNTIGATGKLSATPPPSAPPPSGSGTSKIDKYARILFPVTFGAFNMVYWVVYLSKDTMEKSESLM
T2 sequence (P28472 26-473): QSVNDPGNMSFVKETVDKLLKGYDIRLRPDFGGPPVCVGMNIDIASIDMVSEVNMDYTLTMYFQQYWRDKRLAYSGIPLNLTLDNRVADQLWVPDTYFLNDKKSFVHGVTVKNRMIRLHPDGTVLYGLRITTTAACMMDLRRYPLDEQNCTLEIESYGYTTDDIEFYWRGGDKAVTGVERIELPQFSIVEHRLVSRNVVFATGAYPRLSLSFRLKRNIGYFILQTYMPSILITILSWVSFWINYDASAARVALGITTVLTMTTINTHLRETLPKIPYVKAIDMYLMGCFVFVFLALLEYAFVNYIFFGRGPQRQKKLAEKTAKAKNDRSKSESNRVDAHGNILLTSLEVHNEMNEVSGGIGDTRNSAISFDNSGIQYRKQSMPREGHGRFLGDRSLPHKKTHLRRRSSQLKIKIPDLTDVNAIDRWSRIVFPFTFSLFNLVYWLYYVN
T2 sequence (O14764 17-452 partner limits assumed): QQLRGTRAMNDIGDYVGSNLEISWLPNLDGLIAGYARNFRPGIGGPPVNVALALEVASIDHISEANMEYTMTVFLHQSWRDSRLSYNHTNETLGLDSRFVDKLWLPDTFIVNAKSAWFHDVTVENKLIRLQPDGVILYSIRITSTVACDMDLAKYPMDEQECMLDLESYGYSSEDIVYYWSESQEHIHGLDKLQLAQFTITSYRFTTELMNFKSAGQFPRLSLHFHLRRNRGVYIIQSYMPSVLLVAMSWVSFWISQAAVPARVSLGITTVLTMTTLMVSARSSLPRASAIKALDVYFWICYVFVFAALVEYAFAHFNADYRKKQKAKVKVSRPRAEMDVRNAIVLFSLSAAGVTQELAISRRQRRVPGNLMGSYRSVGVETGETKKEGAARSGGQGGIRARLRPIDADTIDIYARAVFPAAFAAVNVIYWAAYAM
The test can be described thus: Manual patch clamp electrophysiology of recombinant α4β3δ GABAA receptors in CHO cells. The test is classed as cell-based. The settings on record: 10 μM test article, GABA EC20 = 2 μM, read-out: GABA (α4β3δ) Manual patch in CHO, % efficacy at 10 μM.

T1 sequence (P14867 28-456): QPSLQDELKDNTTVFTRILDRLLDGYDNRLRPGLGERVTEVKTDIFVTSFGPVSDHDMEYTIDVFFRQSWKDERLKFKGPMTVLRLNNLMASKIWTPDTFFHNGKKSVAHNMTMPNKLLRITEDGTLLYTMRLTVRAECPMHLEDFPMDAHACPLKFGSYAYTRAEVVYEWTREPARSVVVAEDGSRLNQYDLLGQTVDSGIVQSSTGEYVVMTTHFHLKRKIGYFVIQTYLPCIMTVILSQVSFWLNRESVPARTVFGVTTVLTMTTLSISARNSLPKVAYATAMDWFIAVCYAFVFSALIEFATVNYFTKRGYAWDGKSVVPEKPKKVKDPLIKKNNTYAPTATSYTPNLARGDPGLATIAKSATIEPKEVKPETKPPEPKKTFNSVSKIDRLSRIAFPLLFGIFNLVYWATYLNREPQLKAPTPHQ
T1 sequence (P47870 25-512 limits assumed): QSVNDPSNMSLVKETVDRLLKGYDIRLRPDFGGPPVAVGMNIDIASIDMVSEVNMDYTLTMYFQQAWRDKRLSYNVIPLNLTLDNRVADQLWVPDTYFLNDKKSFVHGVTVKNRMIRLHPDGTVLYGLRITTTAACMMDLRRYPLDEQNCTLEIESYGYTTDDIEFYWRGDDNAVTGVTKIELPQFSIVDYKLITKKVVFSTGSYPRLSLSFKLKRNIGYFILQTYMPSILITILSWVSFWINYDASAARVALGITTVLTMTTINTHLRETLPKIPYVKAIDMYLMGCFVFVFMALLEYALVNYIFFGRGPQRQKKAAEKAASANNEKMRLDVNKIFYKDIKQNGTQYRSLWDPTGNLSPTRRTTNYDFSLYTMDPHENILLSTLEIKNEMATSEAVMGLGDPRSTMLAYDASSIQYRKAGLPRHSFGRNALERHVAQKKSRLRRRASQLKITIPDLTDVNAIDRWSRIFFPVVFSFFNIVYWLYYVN
T1 sequence (P18507 40-475 partner): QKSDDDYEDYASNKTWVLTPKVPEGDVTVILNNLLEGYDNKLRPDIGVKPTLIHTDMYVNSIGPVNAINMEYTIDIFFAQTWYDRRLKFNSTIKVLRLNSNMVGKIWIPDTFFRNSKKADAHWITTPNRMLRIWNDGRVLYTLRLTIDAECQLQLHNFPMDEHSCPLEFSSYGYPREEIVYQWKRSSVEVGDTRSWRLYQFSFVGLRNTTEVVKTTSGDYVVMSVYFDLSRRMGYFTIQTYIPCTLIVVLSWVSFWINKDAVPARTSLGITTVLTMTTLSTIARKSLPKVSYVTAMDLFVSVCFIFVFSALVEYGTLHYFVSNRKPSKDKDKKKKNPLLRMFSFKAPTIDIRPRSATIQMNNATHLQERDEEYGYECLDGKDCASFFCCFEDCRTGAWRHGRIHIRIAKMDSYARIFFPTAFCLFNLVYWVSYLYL

For orientation: pIC50 means the negative decadic logarithm of the IC50, by convention in mol/L. With `CC(=O)[C@H]1CC[C@H]2[C@@H]3CC[C@@H]4C[C@](C)(O)CC[C@]4(COC(C)C)[C@H]3CC[C@]12C` [Compound 5], the Emax at 10 µM at α1β2γ2 GABAA receptors and on α4β3δ GABAA receptors was over 500% each time. For the same molecule, the pIC50 in test [1] was over 8.00.
